These results are taken from PubChem BioAssay (NCI).

Structures are written as SMILES. Where “and” joins values, the source holds several entries; their conditions need not be identical. Equal values may be shown once.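 Five compound concentrations were applied to cells in 96-well plates for 48 hours; endpoints were derived by simple linear interpolation of the resulting dose-response curve. The concentration for 50% growth inhibition is given as GI50. TGI: total growth inhibition.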

The first assay concerns A498 renal. The experiment in a line: inhibition of tumour cell growth, NCI panel, 48 h.
`CCOc1ccc(N2C(=O)/C(=C/c3ccc(N(CCC#N)CCC#N)cc3)N=C2c2cc([N+](=O)[O-])ccc2Cl)cc1` returned a TGI above 100 µM.
In the case of `CCOC(=O)C(=Cc1cccc(Cl)c1)C(=O)OCC`, the GI50 was 11.9 µM and the TGI stood at 24.2 µM.
As for `CCOC(=O)C1(c2ccccc2)CCC(=O)CC1`, the TGI is above 100 µM.
As for `C=CC(=O)N1CCC(C2CCNc3c(C(N)=O)c(-c4ccc(Oc5ccccc5)cc4)nn32)CC1` (centres undefined), the GI50 was 2.33 µM and the TGI amounted to 7.19 µM.
For `CCCCCCNC(=O)c1nc(-c2ccccc2)oc1Cc1ccc(OP(=O)(O)O)cc1` the same measures were 12.5 µM and 25.1 µM.
As to `Cc1ccc(/C=C/c2c(C(=O)/C=C/c3ccc(C(F)(F)F)cc3)c(C)nc3ccccc23)cc1`, the GI50 was 1.77 µM and the TGI amounted to 3.24 µM.
For `CCCn1c(N)c(C(=O)N/N=C(/C)c2cc3cccc(OC)c3o2)sc1=S` the same measures were 65.4 µM and above 100 µM.
Taken in the same sequence, the figures for `C=CCc1cccc(/C=N/NC(=O)CN2CCN(Cc3ccccc3)CC2)c1O` were 4.86 µM and 18.2 µM.
Regarding `O=c1cc2oc3cc(O)c(O)cc3c(-c3ccccc3O)c-2cc1O`, the GI50 was 1.44 µM and the TGI turned out to be 8.36 µM.
For `CCCCCCC[CH2][Sn]1([CH2]CCCCCCC)[O]C(=O)c2cccnc2[S]1` the same measures were above 100 µM and above 100 µM.
Taken in the same sequence, the figures for `N=c1ccn2c(n1)OC1C(O)C(CO)OC12` (centres undefined) were 66.3 µM and above 1000 µM.
The compound `Cc1ccc(S(=O)(=O)N/N=C/c2oc(-c3ccncc3)c(-c3ccncc3)c2[N+](=O)[O-])cc1` came in with a TGI above 100 µM.

A further assay deals with A549 NSCLC. The experiment in a line: inhibition of tumour cell growth, NCI panel, 48 h.
As to `CCOc1ccc(N2C(=O)/C(=C/c3ccc(N(CCC#N)CCC#N)cc3)N=C2c2cc([N+](=O)[O-])ccc2Cl)cc1`, the TGI was above 100 µM.
As for `CCOC(=O)C(=Cc1cccc(Cl)c1)C(=O)OCC`, the GI50 was 11.4 µM and the TGI stood at 24.6 µM.
The compound `CCOC(=O)C1(c2ccccc2)CCC(=O)CC1` yielded a TGI above 100 µM.
Consider `C=CC(=O)N1CCC(C2CCNc3c(C(N)=O)c(-c4ccc(Oc5ccccc5)cc4)nn32)CC1` (centres undefined), for which the GI50 is 21.2 µM and the TGI was above 100 µM.
Take `CCCCCCNC(=O)c1nc(-c2ccccc2)oc1Cc1ccc(OP(=O)(O)O)cc1`: the GI50 is 18 µM and the TGI came to 36 µM.
For `Cc1ccc(/C=C/c2c(C(=O)/C=C/c3ccc(C(F)(F)F)cc3)c(C)nc3ccccc23)cc1` the same measures were 2.03 µM and 4.76 µM.
Consider `CCCn1c(N)c(C(=O)N/N=C(/C)c2cc3cccc(OC)c3o2)sc1=S`, for which the GI50 was 12.5 µM and the TGI was above 100 µM.
Taken in the same sequence, the figures for `C=CCc1cccc(/C=N/NC(=O)CN2CCN(Cc3ccccc3)CC2)c1O` were 3.34 µM and 16.4 µM.
Consider `O=c1cc2oc3cc(O)c(O)cc3c(-c3ccccc3O)c-2cc1O`, for which the GI50 is 28.5 µM and the TGI is above 100 µM.
For the compound `CCCCCCC[CH2][Sn]1([CH2]CCCCCCC)[O]C(=O)c2cccnc2[S]1`, the GI50 was above 100 µM and the TGI was above 100 µM.
Turning to `N=c1ccn2c(n1)OC1C(O)C(CO)OC12` (centres undefined), the GI50 is 0.337 µM and the TGI was above 1000 µM.
With `Cc1ccc(S(=O)(=O)N/N=C/c2oc(-c3ccncc3)c(-c3ccncc3)c2[N+](=O)[O-])cc1`, the TGI is above 100 µM.

Another assay deals with ACHN renal. Put plainly: inhibition of tumour cell growth, NCI panel, 48 h.
On to `CCOc1ccc(N2C(=O)/C(=C/c3ccc(N(CCC#N)CCC#N)cc3)N=C2c2cc([N+](=O)[O-])ccc2Cl)cc1`, for which the TGI is above 100 µM.
Turning to `CCOC(=O)C(=Cc1cccc(Cl)c1)C(=O)OCC`, the GI50 was 1.89 µM and the TGI was determined as 4.23 µM.
Compound `CCOC(=O)C1(c2ccccc2)CCC(=O)CC1` yielded a TGI above 100 µM.
On to `C=CC(=O)N1CCC(C2CCNc3c(C(N)=O)c(-c4ccc(Oc5ccccc5)cc4)nn32)CC1` (centres undefined), for which the GI50 is 2.32 µM and the TGI was found to be 23.6 µM.
Regarding `CCCCCCNC(=O)c1nc(-c2ccccc2)oc1Cc1ccc(OP(=O)(O)O)cc1`, the GI50 is 15.5 µM and the TGI was determined as 29.5 µM.
Regarding `Cc1ccc(/C=C/c2c(C(=O)/C=C/c3ccc(C(F)(F)F)cc3)c(C)nc3ccccc23)cc1`, the GI50 was 1.4 µM and the TGI was 2.7 µM.
Taken in the same sequence, the figures for `CCCn1c(N)c(C(=O)N/N=C(/C)c2cc3cccc(OC)c3o2)sc1=S` were 46.8 µM and above 100 µM.
For `C=CCc1cccc(/C=N/NC(=O)CN2CCN(Cc3ccccc3)CC2)c1O` the same measures were 1.54 µM and 12 µM.
For `O=c1cc2oc3cc(O)c(O)cc3c(-c3ccccc3O)c-2cc1O` the same measures were 4.13 µM and above 100 µM.
`CCCCCCC[CH2][Sn]1([CH2]CCCCCCC)[O]C(=O)c2cccnc2[S]1`: the GI50 was above 100 µM and the TGI is above 100 µM.
Consider `N=c1ccn2c(n1)OC1C(O)C(CO)OC12` (centres undefined), for which the GI50 is 0.237 µM; the TGI is 14 µM and 3.49 µM.
`Cc1ccc(S(=O)(=O)N/N=C/c2oc(-c3ccncc3)c(-c3ccncc3)c2[N+](=O)[O-])cc1` had a TGI above 100 µM.

The subject of a further assay is COLO 205 colon. Put plainly: inhibition of tumour cell growth, NCI panel, 48 h.
With `CCOc1ccc(N2C(=O)/C(=C/c3ccc(N(CCC#N)CCC#N)cc3)N=C2c2cc([N+](=O)[O-])ccc2Cl)cc1`, the TGI was determined as 44.1 µM.
Turning to `CCOC(=O)C(=Cc1cccc(Cl)c1)C(=O)OCC`, the GI50 is 2.21 µM and the TGI stood at 4.42 µM.
Take `CCOC(=O)C1(c2ccccc2)CCC(=O)CC1`: the TGI was above 100 µM.
For `C=CC(=O)N1CCC(C2CCNc3c(C(N)=O)c(-c4ccc(Oc5ccccc5)cc4)nn32)CC1` (centres undefined), the GI50 is 19.1 µM and the TGI amounted to 40.2 µM.
Take `CCCCCCNC(=O)c1nc(-c2ccccc2)oc1Cc1ccc(OP(=O)(O)O)cc1`: the GI50 was 17 µM and the TGI was 31.2 µM.
On to `Cc1ccc(/C=C/c2c(C(=O)/C=C/c3ccc(C(F)(F)F)cc3)c(C)nc3ccccc23)cc1`, for which the GI50 was 2.21 µM and the TGI stood at 5.29 µM.
For `CCCn1c(N)c(C(=O)N/N=C(/C)c2cc3cccc(OC)c3o2)sc1=S` the same measures were 56.7 µM and above 100 µM.
Taken in the same sequence, the figures for `C=CCc1cccc(/C=N/NC(=O)CN2CCN(Cc3ccccc3)CC2)c1O` were 2.22 µM and 13.9 µM.
Taken in the same sequence, the figures for `O=c1cc2oc3cc(O)c(O)cc3c(-c3ccccc3O)c-2cc1O` were 36.3 µM and above 100 µM.
With `CCCCCCC[CH2][Sn]1([CH2]CCCCCCC)[O]C(=O)c2cccnc2[S]1`, the GI50 is above 100 µM and the TGI is above 100 µM.
As for `N=c1ccn2c(n1)OC1C(O)C(CO)OC12` (centres undefined), the GI50 was 2.28 µM and the TGI is above 1000 µM.
Compound `Cc1ccc(S(=O)(=O)N/N=C/c2oc(-c3ccncc3)c(-c3ccncc3)c2[N+](=O)[O-])cc1` yielded a TGI above 100 µM.

The test system of another assay is HCT-116 colon. The experiment in a line: inhibition of tumour cell growth, NCI panel, 48 h.
In the case of `CCOc1ccc(N2C(=O)/C(=C/c3ccc(N(CCC#N)CCC#N)cc3)N=C2c2cc([N+](=O)[O-])ccc2Cl)cc1`, the TGI came to 39.5 µM.
For the compound `CCOC(=O)C(=Cc1cccc(Cl)c1)C(=O)OCC`, the GI50 was 1.82 µM and the TGI is 3.83 µM.
Take `CCOC(=O)C1(c2ccccc2)CCC(=O)CC1`: the TGI was above 100 µM.
Regarding `C=CC(=O)N1CCC(C2CCNc3c(C(N)=O)c(-c4ccc(Oc5ccccc5)cc4)nn32)CC1` (centres undefined), the GI50 was 17.6 µM and the TGI is 39.5 µM.
For `CCCCCCNC(=O)c1nc(-c2ccccc2)oc1Cc1ccc(OP(=O)(O)O)cc1` the same measures were 17.1 µM and 32.6 µM.
With `Cc1ccc(/C=C/c2c(C(=O)/C=C/c3ccc(C(F)(F)F)cc3)c(C)nc3ccccc23)cc1`, the GI50 was 0.496 µM and the TGI was found to be 2.09 µM.
Regarding `CCCn1c(N)c(C(=O)N/N=C(/C)c2cc3cccc(OC)c3o2)sc1=S`, the GI50 is 17.4 µM and the TGI was above 100 µM.
For the compound `C=CCc1cccc(/C=N/NC(=O)CN2CCN(Cc3ccccc3)CC2)c1O`, the GI50 was 1.71 µM and the TGI came out at 13.8 µM.
For `O=c1cc2oc3cc(O)c(O)cc3c(-c3ccccc3O)c-2cc1O`, the GI50 is 3.81 µM and the TGI amounted to 21.9 µM.
For `CCCCCCC[CH2][Sn]1([CH2]CCCCCCC)[O]C(=O)c2cccnc2[S]1` the same measures were above 100 µM and above 100 µM.
For `N=c1ccn2c(n1)OC1C(O)C(CO)OC12` (centres undefined) the same measures were 0.164 µM and above 1000 µM.
